# Source: ChEMBL document CHEMBL1201862, “PubChem BioAssay data set” (2004)
#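 Briefly, cells in 96-well plates were exposed to five compound concentrations for 48 h, and endpoints were estimated by linear interpolation. At the GI50, growth is halved.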 Activity calls are given as the source filed them. Cut-off read from the data, not from the text of the source: active = GI50 up to about 1.1 µM and inactive = higher.
# Columns and labels:
# Assay in all cases: DTP human tumour cell line panel, 48 h
# SF-268 = test system: SF-268
# A549 = test system: A549
# SK-MEL-2 = test system: SK-MEL-2
# SNB-75 = test system: SNB-75
# LOX IMVI = test system: LOX IMVI
# RPMI-8226 = test system: RPMI-8226
# OVCAR-4 = test system: OVCAR-4
# MCF7 = test system: MCF7
# SNB-19 = test system: SNB-19
# HOP-92 = test system: HOP-92
# HCC 2998 = test system: HCC 2998
# KM12 = test system: KM12
# HCT-15 = test system: HCT-15
# SW-620 = test system: SW-620
# OVCAR-5 = test system: OVCAR-5
# PC-3 = test system: PC-3
# RXF 393 = test system: RXF 393
# COLO 205 = test system: COLO 205
# NCI-H23 = test system: NCI-H23
# SF-539 = test system: SF-539
Compound,GI50 (SF-268),GI50 (A549),GI50 (SK-MEL-2),GI50 (SNB-75),GI50 (LOX IMVI),GI50 (RPMI-8226),GI50 (OVCAR-4),GI50 (MCF7),GI50 (SNB-19),GI50 (HOP-92),GI50 (HCC 2998),GI50 (KM12),GI50 (HCT-15),GI50 (SW-620),GI50 (OVCAR-5),GI50 (PC-3),GI50 (RXF 393),GI50 (COLO 205),GI50 (NCI-H23),GI50 (SF-539)
CCN1CCC(O)(/C=C/c2ccc(C)cc2C)C(C(=O)/C=C/c2ccc(C)cc2C)C1 (stereo not given),2.4 µM (inactive),4 µM (inactive),4.26 µM (inactive),5.79 µM (inactive),1.76 µM (inactive),4.76 µM (inactive),2.99 µM (inactive),2.69 µM (inactive),4.03 µM (inactive),1.85 µM (inactive),1.69 µM (inactive),2.33 µM (inactive),1.93 µM,3.16 µM (inactive),4.29 µM (inactive),2.5 µM (inactive),3.21 µM (inactive),1.98 µM (inactive),2.77 µM (inactive),1.92 µM (inactive)
O=c1[nH]nc(-c2ccc([N+](=O)[O-])cc2)n1/N=C/c1ccc([N+](=O)[O-])cc1,72.9 µM (inactive),90.8 µM (inactive),> 100 µM (inactive),> 100 µM (inactive),0.483 µM (active),38.5 µM (inactive),52.1 µM (inactive),47.9 µM (inactive),> 100 µM (inactive),> 100 µM (inactive),> 100 µM (inactive),55.3 µM (inactive),73.8 µM,> 100 µM (inactive),> 100 µM (inactive),57.9 µM (inactive),56.9 µM (inactive),> 100 µM (inactive),60.7 µM (inactive),> 100 µM (inactive)
COc1ccc2[nH]cc(C(=O)C(=O)NC34CC5CC(CC(C5)C3)C4)c2c1,> 61.1 µM (inactive),26.2 µM (inactive),57.8 µM (inactive),37.9 µM (inactive),7.21 µM (inactive),4.69 µM (inactive),29.6 µM (inactive),10.1 µM (inactive),53.5 µM (inactive),29.5 µM (inactive),28.1 µM (inactive),> 26.9 µM (inactive),9.16 µM,38.9 µM (inactive),35.2 µM (inactive),38.3 µM (inactive),3.22 µM (inactive),6.9 µM (inactive),> 72.6 µM (inactive),14 µM (inactive)
CCN(CC)c1ccc(/C=C2/C[N+](C)(C)C/C(=C/c3ccc(N(CC)CC)cc3)C2=O)cc1,2.58 µM (inactive),4.92 µM (inactive),1.87 µM (inactive),1.62 µM (inactive),1.69 µM (inactive),0.653 µM (active),3.01 µM (inactive),1.96 µM (inactive),3.19 µM (inactive),0.813 µM (active),2.42 µM (inactive),1.23 µM (inactive),> 100 µM,2.67 µM (inactive),9.73 µM (inactive),3.05 µM (inactive),2.77 µM (inactive),1.29 µM (inactive),1.69 µM (inactive),2.32 µM (inactive)
CCC1CCC2C3CC=C4CC(OC(C)=O)C(N)CC4(C)C3CCC12C (stereo not given),2.71 µM (inactive),2.07 µM (inactive),3.97 µM (inactive),1.89 µM (inactive),1.8 µM (inactive),2.69 µM (inactive),4.94 µM (inactive),6.41 µM (inactive),2.51 µM (inactive),5.02 µM (inactive),1.59 µM (inactive),2.96 µM (inactive),3.3 µM,3.21 µM (inactive),6.21 µM (inactive),2.71 µM (inactive),1.85 µM (inactive),5.18 µM (inactive),6 µM (inactive),1.86 µM (inactive)
CN(C)CCO/N=C1/C=C2CC[C@H]3[C@@H]4CC[C@H](O)[C@@]4(C)CC[C@@H]3[C@@]2(C)CC1,7.48 µM (inactive),18.3 µM (inactive),13.9 µM (inactive),3.48 µM (inactive),15.9 µM (inactive),25.2 µM (inactive),2.49 µM (inactive),22.8 µM (inactive),27.4 µM (inactive),7.85 µM (inactive),9.82 µM (inactive),10.8 µM (inactive),13.9 µM,10.7 µM (inactive),12.5 µM (inactive),18.2 µM (inactive),9.59 µM (inactive),16.2 µM (inactive),11.4 µM (inactive),3.51 µM (inactive)
CCCCCCCCCCCCCCCCOP(=O)(O)OP(=O)(O)OCC1OC(n2ccc(N)nc2=O)CC1O (stereo not given),> 100 µM (inactive),> 100 µM (inactive),> 100 µM (inactive),> 100 µM (inactive),> 100 µM (inactive),> 100 µM (inactive),> 100 µM (inactive),> 100 µM (inactive),> 100 µM (inactive),> 100 µM (inactive),> 100 µM (inactive),> 100 µM (inactive),> 100 µM,> 100 µM (inactive),> 100 µM (inactive),> 100 µM (inactive),> 100 µM (inactive),> 100 µM (inactive),> 100 µM (inactive),> 100 µM (inactive)
